From patent US20230101747A1 (Schrödinger, Inc., priority 2019, published 2023)
Where two headings read alike, the source gives them in different places.

Assays:
[1] = target: T1, Full length human CDC7 protein co-expressed with DBF4 (Homo sapiens, UniProt O00311); assay: CDC7 kinase biochemical assay (ADP-Glo, PDKtide substrate); conditions: 0.1 nM CDC7/DBF4, 1 uM ATP, 10 uM PDKtide, 4 h; read-out: CDC7 ADP-Glo PDKtide IC50
T1 construct: Full length human CDC7 protein co-expressed with DBF4; purchased SignalChem (China)
Outline: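 ADP-Glo luminescence measured ADP made over a 4 h reaction of 0.1 nM CDC7/DBF4 (full-length human) with 10 uM PDKtide and 1 uM ATP. Buffer was 40 mM Tris pH 7.5 with 20 mM MgCl2, 0.1 mg/ml BSA, 50 uM DTT. Inhibition normalized to DMSO and positive-control inhibitor wells.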

[2] = system: phosphorylation of MCM2 S53 (CDC7 substrate) in colo205 cells; assay: Phosphorylated MCM2 MSD electrochemiluminescence assay; assay type: cell-based; conditions: Homo sapiens, read-out: pMCM2-S53 MSD Colo205 IC50
Description: Phosphorylated MCM2 MSD Electrochemiluminescence Assay
The effect of CDC7 inhibitors on cellular phosphorylation of the CDC7 substrate MCM2 was determined using the following protocol:
A total of 40,000 colo205 cells in 100 uL culture medium (1640 medium+10% Fetal bovine serum+1% Penicillin-Streptomycin) were plated in 96-well cell culture plates and allowed to attach for 6 hours. 3-fold serial dilutions of test compounds were prepared in completed PBS at 25× final concentration and 4 uL of each were added to the cells and incubated for 20 hours at 37° C., 5% CO2. Each concentration was tested in duplicate. After the 20 h incubation, cells were washed with 150 uL PBS and lysed with 40 uL MSD lysis buffer (obtained from Meso Scale Diagnostics) supplied with 1× complete ULTRA cocktail inhibitor (obtained from Roche). To detect phosphorylation of MCM2 S53, 30 μL of capture antibody solution (obtained from Abnova, catalog number H00004171-M01, 1:500) was added to each well of MULTI-ARRAY 96-well High Bind Plate, and incubated overnight. The antibody solution was removed, wells blocked with BSA solution and plates washed, followed by addition of 30 ul of cell lysate per well. After 2 h incubation, plates were washed. 30 μL of 1× detection antibody solution (obtained from Abcam, catalog number ab109133, 1:1000) was then added to each well and incubate for 1 hour. Plates were washed and 30 μL of 1× secondary antibody solution (obtained from MSD, catalog number R32AB-1, 1:5000) was added to each well and incubate for 1 hour. Plates were washed and 150 μL of 1× Read Buffer T was added to each well of the MSD plate. The electrochemiluminescence signal was measured on a MESO SECTOR S600 plate reader. The percentage of remaining phosphorylated MCM2 signal was calculated following the equation below.
HC (high control): Cells treated with DMSO Cpds: Cells treated with test compounds LC (low control): Cells treated with positive control CDC7 inhibitor

[3] = COLO 205, colo205 cells, 20 h incubation

T1 sequence (O00311 whole entry): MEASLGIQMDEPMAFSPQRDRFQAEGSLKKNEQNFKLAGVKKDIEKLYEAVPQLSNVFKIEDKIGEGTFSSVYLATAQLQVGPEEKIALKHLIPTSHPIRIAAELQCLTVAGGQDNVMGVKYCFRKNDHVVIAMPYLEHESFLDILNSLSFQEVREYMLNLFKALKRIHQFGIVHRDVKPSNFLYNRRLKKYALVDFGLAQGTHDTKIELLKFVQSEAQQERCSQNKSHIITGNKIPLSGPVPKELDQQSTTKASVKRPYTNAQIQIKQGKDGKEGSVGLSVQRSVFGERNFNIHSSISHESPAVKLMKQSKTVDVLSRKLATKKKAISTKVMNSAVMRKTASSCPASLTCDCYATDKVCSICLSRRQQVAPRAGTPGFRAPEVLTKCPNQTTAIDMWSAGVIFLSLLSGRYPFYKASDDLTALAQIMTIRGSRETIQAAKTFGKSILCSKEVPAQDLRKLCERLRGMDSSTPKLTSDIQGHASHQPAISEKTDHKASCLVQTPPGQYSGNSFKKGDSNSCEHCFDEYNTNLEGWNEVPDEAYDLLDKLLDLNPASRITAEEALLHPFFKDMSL
T1 sequence (Q9UBU7 whole entry partner): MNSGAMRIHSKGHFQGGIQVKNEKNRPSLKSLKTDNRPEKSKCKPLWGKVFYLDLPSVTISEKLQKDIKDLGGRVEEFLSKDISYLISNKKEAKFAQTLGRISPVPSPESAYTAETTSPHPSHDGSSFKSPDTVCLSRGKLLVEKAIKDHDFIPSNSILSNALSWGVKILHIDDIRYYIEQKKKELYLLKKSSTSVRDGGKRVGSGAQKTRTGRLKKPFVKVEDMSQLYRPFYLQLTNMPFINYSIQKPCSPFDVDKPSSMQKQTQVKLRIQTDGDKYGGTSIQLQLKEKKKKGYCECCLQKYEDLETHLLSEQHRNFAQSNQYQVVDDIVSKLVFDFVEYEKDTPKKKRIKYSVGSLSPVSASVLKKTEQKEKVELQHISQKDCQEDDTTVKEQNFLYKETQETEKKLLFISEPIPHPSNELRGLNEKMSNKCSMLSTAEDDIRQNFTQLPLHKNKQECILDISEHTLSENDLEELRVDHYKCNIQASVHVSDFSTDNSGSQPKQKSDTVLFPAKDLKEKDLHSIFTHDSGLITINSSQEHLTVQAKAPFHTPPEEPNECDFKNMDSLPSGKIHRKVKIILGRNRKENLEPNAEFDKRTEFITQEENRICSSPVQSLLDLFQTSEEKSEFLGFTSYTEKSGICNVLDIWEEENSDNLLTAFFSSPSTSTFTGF

IC50 [1] [nM]	IC50 [2, 3] [nM]	SMILES	IC50 ([2]; COLO 205, 20 h) [nM]
< 1	57	O=C1N[C@H](C2CCC2)CN2CCOc3c(-c4cn[nH]c4)sc1c32 [Compound 19, (R)-7-cyclobutyl-2-(1H-pyrazol-4-yl)-4,5,7,8-tetrahydro-3-oxa-1-thia-5a,8-diazabenzo[cd]azulen-9(6H)-one]	–
< 1	41	C[C@H]1CN2CCCc3c(-c4cn[nH]c4)sc(c32)C(=O)N1 [Compound 30, (S)-7-methyl-2-(1H-pyrazol-4-yl)-4,5,7,8-tetrahydro-3H-1-thia-5a,8-diazabenzo[cd]azulen-9(6H)-one]	–
< 1	812	O=C1N[C@@H](CO)CN2CCCc3c(-c4cn[nH]c4)sc1c32 [Compound 32, (R)-7-(hydroxymethyl)-2-(1H-pyrazol-4-yl)-4,5,7,8-tetrahydro-3H-1-thia-5a,8-diazabenzo[cd]azulen-9(6H)-one]	–
< 1	80	O=C1NC[C@H](CO)N2CCOc3c(-c4cn[nH]c4)sc1c32 [Compound 33, (R)-6-(hydroxymethyl)-2-(1H-pyrazol-4-yl)-4,5,7,8-tetrahydro-3-oxa-1-thia-5a,8-diazabenzo[cd]azulen-9(6H)-one]	–
1 to 10	1810	O=C1NC[C@@H](COCc2ccccc2)N2CCOc3c(-c4cn[nH]c4)sc1c32 [Compound 38, (S)-6-((benzyloxy)methyl)-2-(1H-pyrazol-4-yl)-4,5,7,8-tetrahydro-3-oxa-1-thia-5a,8-diazabenzo[cd]azulen-9(6H)-one]	–
< 1	265	O=C1N[C@H](CO)CN2CCOc3c(-c4cn[nH]c4)sc1c32 [Compound 39, (S)-7-(hydroxymethyl)-2-(1H-pyrazol-4-yl)-4,5,7,8-tetrahydro-3-oxa-1-thia-5a,8-diazabenzo[cd]azulen-9(6H)-one]	–
< 1	87	Cc1cnn(C[C@H]2CN3CCOc4c(-c5cn[nH]c5)sc(c43)C(=O)N2)c1 [Compound 41, (R)-7-((4-methyl-1H-pyrazol-1-yl)methyl)-2-(1H-pyrazol-4-yl)-4,5,7,8-tetrahydro-3-oxa-1-thia-5a,8-diazabenzo[cd]azulen-9(6H)-one]	–
< 1	509	O=C1NCCN2c3c1sc(-c1cn[nH]c1)c3OC[C@@H]2CO [Compound 49, (S)-5-(hydroxymethyl)-2-(1H-pyrazol-4-yl)-4,5,7,8-tetrahydro-3-oxa-1-thia-5a,8-diazabenzo[cd]azulen-9(6H)-one]	–
< 1	268	O=C1NC[C@H](CO)N2CCOc3c(-c4ccncc4)sc1c32 [Compound 50, (R)-6-(hydroxymethyl)-2-(pyridin-4-yl)-4,5,7,8-tetrahydro-3-oxa-1-thia-5a,8-diazabenzo[cd]azulen-9(6H)-one]	–
< 1	110	COC[C@@H]1CN2CCOc3c(-c4cn[nH]c4)sc(c32)C(=O)N1 [Compound 54, (S)-7-(methoxymethyl)-2-(1H-pyrazol-4-yl)-4,5,7,8-tetrahydro-3-oxa-1-thia-5a,8-diazabenzo[cd]azulen-9(6H)-one]	–
< 1	21	COC[C@@H]1CNC(=O)c2sc(-c3cn[nH]c3)c3c2N1CCO3 [Compound 55, (S)-6-(methoxymethyl)-2-(1H-pyrazol-4-yl)-4,5,7,8-tetrahydro-3-oxa-1-thia-5a,8-diazabenzo[cd]azulen-9(6H)-one]	–
< 1	660	COC1(C[C@@H]2CNC(=O)c3sc(-c4cn[nH]c4)c4c3N2CCC4)CC1 [Compound 91, (9R)-9-[(1-methoxycyclopropyl)methyl]-3-(1H-pyrazol-4-yl)-2-thia-8,11-diazatricyclo [6.4.1.0^4,13]trideca-1(13),3-dien-12-one]	–
< 1	28	C[C@@H]1CN2CC(F)(F)Oc3c(-c4cn[nH]c4)sc(c32)C(=O)N1 [Compound 93, (10R)-6,6-difluoro-10-methyl-3-(1H-pyrazol-4-yl)-5-oxa-2-thia-8,11-diazatricyclo [6.4.1.0^443] trideca-1(13), 3-dien-12-one]	–
< 1	23	O=C1N[C@H](C2CCC2)CN2CC(F)(F)Oc3c(-c4cn[nH]c4)sc1c32 [Compound 100, (R)-7-cyclobutyl-4,4-difluoro-2-(1H-pyrazol-4-yl)-4,5,7,8-tetrahydro-3-oxa-1-thia-5a,8-diazabenzo[cd]azulen-9(6H)-one]	–
< 1	66	O=C1N[C@@H](Cn2cccn2)CN2CC(F)(F)Cc3c(-c4cn[nH]c4)sc1c32 [Compound 102, (R)-7-((1H-pyrazol-1-yl)methyl)-4,4-difluoro-2-(1H-pyrazol-4-yl)-4,5,7,8-tetrahydro-3H-1-thia-5a,8-diazabenzo[cd]azulen-9(6H)-one]	–
< 1	15	COC[C@H]1CN2CC(F)(F)Cc3c(-c4cn[nH]c4)sc(c32)C(=O)N1 [Compound 103, (10R)-6,6-difluoro-10-(methoxymethyl)-3-(1H-pyrazol-4-yl)-2-thia-8,11-diazatricyclo [6.4.1.0^4,13]trideca-1(13),3-dien-12-one]	–
< 1	150	CC(C)(O)C[C@@H]1CNC(=O)c2sc(-c3cn[nH]c3)c3c2N1CCO3 [Compound 104, (R)-6-(2-hydroxy-2-methylpropyl)-2-(1H-pyrazol-4-yl)-4,5,7,8-tetrahydro-3-oxa-1-thia-5a,8-diazabenzo[cd]azulen-9(6H)-one]	–
< 1	218	COC[C@@H]1CN2CC(F)(F)Cc3c(-c4cn[nH]c4)sc(c32)C(=O)N1 [Compound 115, (S)-4,4-difluoro-7-(methoxymethyl)-2-(1H-pyrazol-4-yl)-4,5,7,8-tetrahydro-3H-1-thia-5a,8-diazabenzo[cd]azulen-9(6H)-one]	–
< 1	27	O=C1N[C@@H]([C@@H]2CC(F)(F)CN2)CN2CC(F)(F)Cc3c(-c4cn[nH]c4)sc1c32 [Compound 135, (10R)-10-[(2S)-4,4-difluoropyrrolidin-2-yl]-6,6-difluoro-3-(1H-pyrazol-4-yl)-2-thia-8,11-diazatricyclo[6.4.1.04,13]trideca-1(13),3-dien-12-one]	–
< 1	16	CN1CC(F)(F)C[C@H]1[C@H]1CN2CC(F)(F)Cc3c(-c4cn[nH]c4)sc(c32)C(=O)N1 [Compound 136, (R)-7-((S)-4,4-difluoro-1-methylpyrrolidin-2-yl)-4,4-difluoro-2-(1H-pyrazol-4-yl)-4,5,7,8-tetrahydro-3H-1-thia-5a,8-diazabenzo[cd]azulen-9(6H)-one]	–
< 1	5	O=C1N[C@@H](COC(F)F)CN2CC(F)(F)Cc3c(-c4cn[nH]c4)sc1c32 [Compound 142, (R)-7-((difluoromethoxy)methyl)-4,4-difluoro-2-(1H-pyrazol-4-yl)-4,5,7,8-tetrahydro-3H-1-thia-5a,8-diazabenzo[cd]azulen-9(6H)-one]	–

SMILES	IC50 [1] [nM]	IC50 [2, 3] [nM]	IC50 ([2]; COLO 205, 20 h) [nM]
O=C1NC2(CCC2)CN2CCOc3c(-c4cn[nH]c4)sc1c32 [Compound 51, 2-(1H-pyrazol-4-yl)-4,5-dihydro-6H-3-oxa-1-thia-5a,8-diazaspiro[benzo[cd]azulene-7,1′-cyclobutan]-2,2a1(9a)-dien-9(8H)-one]	< 1	–	18
